Test system: U2OS
Assay: Cell death and apoptosis in U2OS cells exposed to cytotoxic agents (staurosporine, rotenone, antimycin A, menadione, mitoxantrone) under a krypton atmosphere, read by automated fluorescence microscopy
Type: cell-based
Conditions: cells kept in an atmosphere formed of krypton, measured after 6 and 16 hours of incubation
Text: Des essais ont été réalisés pour démontrer que le krypton présente un effet protecteur cérébral de par sa capacité à protéger la cellule du phénomène de la mort cellulaire programmée ou apoptose, qui est la conséquence ultime des neuro-intoxications telles que décrites dans le syndrome d'ischémie-reperfusion, d'addictions... […]
Les cellules ont été ensuite analysées dans un automate BD Pathway Fluorescence Microscope afin de déterminer les paramètres suivants : • apoptose cellulaire définit par GFP-H2B ou DAPI-condensation chromatine mesurable), • autophagie définit par GFP-LC3 puncta, • nécrose définit par l'exsudation de HMGB1 du noyau, • aberrations mitotiques définit par GFP-H2B et Red-Centrin, • niveau de stress ER définit par GFP-G3B puncta, • cycle cellulaire définit par l'incorporation de […] dans les cellules en phase S, ainsi que l'analyse du DNA. […]

[Kr] [krypton]
capacités fonctionnelles et intégrité physiques des cellules: conservent leurs capacités fonctionnelles ainsi que leur intégrité physiques
signes d'apoptose cellulaire (apoptosis defined by GFP-H2B or DAPI chromatin condensation): diminue les signes d'apoptose cellulaire

— patent EP2608770B1, “INHALABLE GASEOUS DRUG CONTAINING KRYPTON FOR TREATING NEURO-INTOXICATION” (L'Air Liquide Société Anonyme pour l'Etude et …, priority 2010, dated 2012)
